The record followed here is patent US10710986B2, “PD-1/PD-L1 inhibitors” (Gilead Sciences, Inc., priority 2018, dated 2020).

The term IC50 denotes the concentration that inhibits the measured activity by half.

For the assay, the target named is PD-1/PD-L1 (Homo sapiens (Human), UniProt Q9NZQ7). In words: PD-1/PD-L1 biochemical protein-protein interaction assay (ALPHA). The note with it: 0.3 nM His tagged PD-L1, 2.5 nM biotinylated Fc-PD-1, 60 minutes at 25° C., read-out: IC50 PD-L1-PD1.
PD-1/PD-L1, sequence (Q9NZQ7 19-238): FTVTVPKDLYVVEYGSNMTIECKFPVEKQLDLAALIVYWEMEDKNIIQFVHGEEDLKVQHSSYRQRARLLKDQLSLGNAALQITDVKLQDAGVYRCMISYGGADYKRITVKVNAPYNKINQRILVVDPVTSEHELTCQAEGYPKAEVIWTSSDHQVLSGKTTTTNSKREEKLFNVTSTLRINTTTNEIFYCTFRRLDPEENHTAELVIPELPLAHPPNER
For `COc1nc(-c2cccc(-c3cccc(-c4cnc(CNCC5(O)CCC5)c(OC)n4)c3Cl)c2Cl)cnc1CNC[C@@H]1CCC(=O)N1` [compound 486], the IC50 was found to be 0.29 nM.
Turning to `COc1nc(-c2cccc(-c3cccc(-c4cnc(CN5C[C@H](C)[C@@H](O)C5)c(OC)n4)c3Cl)c2Cl)cnc1CNC[C@@H]1CCC(=O)N1` [compound 487], the IC50 is 0.123 nM.
Regarding `CNc1nc(-c2cccc(-c3cccc(-c4cnc(CNC[C@@H]5CCC(=O)N5)c(OC)n4)c3Cl)c2Cl)cnc1CN1CC2(C1)CN(C(C)=O)C2` [compound 488], the IC50 is 0.064 nM.
Consider `COc1nc(-c2cccc(-c3cccc(-c4cnc5c(CN6CC7(C6)CN(C(C)=O)C7)nn(C)c5n4)c3Cl)c2Cl)cnc1CN1CC2(C1)CN(C(C)=O)C2` [compound 489], for which the IC50 came out at 0.332 nM.
As to `CCn1nc(CN2CC3(C2)CN(C(C)=O)C3)c2ncc(-c3cccc(-c4cccc(-c5cnc(CN6CC7(C6)CN(C(C)=O)C7)c(OC)n5)c4Cl)c3Cl)nc21` [compound 490], the IC50 worked out at 0.565 nM.
For the molecule `COc1nc(-c2cccc(-c3cccc(-c4ccc5c(CN6CC7(C6)CN(C(C)=O)C7)cn(C)c5n4)c3Cl)c2Cl)cnc1CN1CC2(C1)CN(C(C)=O)C2` [compound 491], the half-inhibitory concentration (IC50) was determined as 0.064 nM.
Under `COc1nc(-c2cccc(-c3cccc(-c4ccc5c(CN6CC(O)C6)cn(C)c5n4)c3Cl)c2Cl)cnc1CN1CC(O)C1` [compound 492] stands 0.092 nM; under `COc1nc(-c2cccc(-c3cccc(-c4ccc5c(CN6CC7(CNC(=O)C7)C6)cn(C)c5n4)c3Cl)c2Cl)cnc1CN1CC2(CNC(=O)C2)C1` [compound 493], 0.109 nM.
In the case of `COc1nc(-c2cccc(-c3cccc(-c4ccc5c(CN6CC7(CCC(=O)N7)C6)cn(C)c5n4)c3Cl)c2Cl)cnc1CN1CC2(CCC(=O)N2)C1` [compound 494], the IC50 stood at 0.139 nM.
Turning to `COc1nc(-c2cccc(-c3cccc(-c4ccc5c(CNC[C@@H]6CCC(=O)N6)cn(C)c5n4)c3Cl)c2Cl)cnc1CNC[C@@H]1CCC(=O)N1` [compound 495], the IC50 came out at 0.247 nM.
In the case of `OC1CN(Cc2ncc(-c3cccc(-c4cccc(-c5cnc(CN6CC(O)C6)c(N6CCC6)n5)c4Cl)c3Cl)nc2N2CCC2)C1` [compound 496], the IC50 worked out at 0.386 nM.
As to `COc1nc(-c2cccc(-c3cccc(-c4cnc(CN5CC6(CNC(=O)C6)C5)c(OC)n4)c3Cl)c2F)ccc1CN1CC2(CNC(=O)C2)C1` [compound 497], the IC50 was found to be 0.276 nM.
Under `COc1nc(-c2cccc(-c3cccc(-c4cnc(CNC[C@@H]5CCC(=O)N5)c(OC)n4)c3Cl)c2F)ccc1CNC[C@@H]1CCC(=O)N1` [compound 498] stands 0.169 nM; under `COc1nc(-c2cccc(-c3cccc(-c4cnc(CN5CC[C@@H](C(C)(C)O)C5)c(OC)n4)c3Cl)c2Cl)cnc1CN1CC[C@@H](C(C)(C)O)C1` [compound 499], 0.203 nM.
Under `COc1nc(-c2cccc(-c3cccc(-c4cnc(CN5CC[C@H](C(C)(C)O)C5)c(OC)n4)c3Cl)c2Cl)cnc1CN1CC[C@H](C(C)(C)O)C1` [compound 500] stands 0.232 nM.
With `COc1nc(-c2cccc(-c3cccc(-c4cnc(CN5CC[C@@H](C(C)(C)O)C5)c(OC)n4)c3Cl)c2Cl)cnc1CNC[C@@H]1CCC(=O)N1` [compound 501], the concentration for half-maximal inhibition (IC50) came out at 0.087 nM.
For `COc1nc(-c2cccc(-c3cccc(-c4cnc(CN5CC[C@H](C(C)(C)O)C5)c(OC)n4)c3Cl)c2Cl)cnc1CNC[C@@H]1CCC(=O)N1` [compound 502], the IC50 came out at 0.064 nM.
For the molecule `COc1nc(-c2cccc(-c3cccc(-c4cnc(CN5CCC(C(N)=O)CC5)c(OC)n4)c3Cl)c2Cl)cnc1CNC[C@@H]1CCC(=O)N1` [compound 508], the IC50 is 0.084 nM.
With `COc1nc(-c2cccc(-c3cccc(-c4cnc(CNC5CCOCC5)c(OC)n4)c3Cl)c2Cl)cnc1CNC[C@@H]1CCC(=O)N1` [compound 509], the IC50 was 0.106 nM.
Take `COc1nc(-c2cccc(-c3cccc(-c4cnc(CN5CC[C@](C)(O)C5)c(OC)n4)c3Cl)c2Cl)cnc1CNC[C@@H]1CCC(=O)N1` [compound 510]: the IC50 came out at 0.192 nM.
Under `COc1nc(-c2cccc(-c3cccc(-c4cnc(CN[C@H]5C[C@H](CO)C5)c(OC)n4)c3Cl)c2Cl)cnc1CNC[C@@H]1CCC(=O)N1` [compound 511] stands 0.197 nM; under `COc1nc(-c2cccc(-c3cccc(-c4cnc(CNCCC(=O)O)c(OC)n4)c3Cl)c2Cl)ccc1CNC[C@@H]1CCC(=O)N1` [compound 512], 0.101 nM; under `COc1nc(-c2cccc(-c3cccc(-c4cnc(CN5CC[C@H](C(=O)O)C5)c(OC)n4)c3Cl)c2Cl)ccc1CNC[C@@H]1CCC(=O)N1` [compound 513], 0.064 nM.
Under `COc1nc(-c2cccc(-c3cccc(-c4cnc(CN5CC[C@@H](C(=O)O)C5)c(OC)n4)c3Cl)c2Cl)ccc1CNC[C@@H]1CCC(=O)N1` [compound 514] stands 0.09 nM; under `COc1nc(-c2cccc(-c3cccc(-c4cnc(CN5CCC(c6cc[nH]n6)C5)c(OC)n4)c3Cl)c2Cl)cnc1CNC[C@@H]1CCC(=O)N1` (stereo partly drawn) [compound 515], 0.342 nM.
As to `COc1nc(-c2cccc(-c3cccc(-c4cnc(CN5CC[C@H](O)[C@@H]5C)c(OC)n4)c3Cl)c2Cl)cnc1CNC[C@@H]1CCC(=O)N1` [compound 516], the IC50 is 0.064 nM.
Turning to `COc1nc(-c2cccc(-c3cccc(-c4cnc(CN5CC[C@H](C(N)=O)C5)c(OC)n4)c3Cl)c2Cl)cnc1CNC[C@@H]1CCC(=O)N1` [compound 517], the IC50 is 0.106 nM.
Under `COc1nc(-c2cccc(-c3cccc(-c4cnc(CNCCc5cnccn5)c(OC)n4)c3Cl)c2Cl)cnc1CNCCc1cnccn1` [compound 518] stands 0.144 nM; under `COc1nc(-c2cccc(-c3cccc(-c4cnc(CN5C[C@@H](O)[C@@H](O)C5)c(OC)n4)c3Cl)c2Cl)cnc1CN1C[C@@H](O)[C@@H](O)C1` [compound 519], 0.277 nM.
As to `COc1nc(-c2cccc(-c3cccc(-c4cnc(CNC[C@@H]5CCC(=O)N5)c(OC)n4)c3Cl)c2Cl)cnc1CNCCc1cncnc1` [compound 520], the IC50 is 0.072 nM.
In the case of `COc1nc(-c2cccc(-c3cccc(-c4cnc(CNC[C@@H]5CCC(=O)N5)c(OC)n4)c3Cl)c2Cl)cnc1CNCCc1cnccn1` [compound 521], the IC50 is 0.071 nM.
With `COc1nc(-c2cccc(-c3cccc(-c4cnc(CN(CCO)CCO)c(OC)n4)c3Cl)c2Cl)cnc1CNC[C@@H]1CCC(=O)N1` [compound 522], the IC50 came to 0.064 nM.
Regarding `COc1nc(-c2cccc(-c3cccc(-c4cnc(CN5CCC(O)(CO)C5)c(OC)n4)c3Cl)c2Cl)cnc1CNC[C@@H]1CCC(=O)N1` (stereo partly drawn) [compound 523], the IC50 amounted to 0.181 nM.
Turning to `COc1nc(-c2cccc(-c3cccc(-c4cnc(CN5C[C@@H](O)[C@@H](O)C5)c(OC)n4)c3Cl)c2Cl)cnc1CNC[C@@H]1CCC(=O)N1` [compound 524], the IC50 turned out to be 0.115 nM.
Turning to `COc1nc(-c2cccc(-c3cccc(-c4cnc(CN5CCC(N6CCNC6=O)C5)c(OC)n4)c3Cl)c2Cl)cnc1CN1CCC(N2CCNC2=O)C1` (stereo not drawn) [compound 525], the IC50 came to 0.105 nM.
Under `COc1nc(-c2cccc(-c3cccc(-c4cnc(CN5C[C@H](O)[C@@H](O)C5)c(OC)n4)c3Cl)c2Cl)cnc1CN1C[C@H](O)[C@@H](O)C1` [compound 526] stands 0.168 nM.
For `COc1nc(-c2cccc(-c3cccc(-c4cnc(CN5CC(C(N)=O)C5)c(OC)n4)c3Cl)c2Cl)cnc1CN1CC(C(N)=O)C1` [compound 527] the value was 0.089 nM.
Under `COc1nc(-c2cccc(-c3cccc(-c4cnc(CN5CCC(N6CCNC6=O)C5)c(OC)n4)c3Cl)c2Cl)cnc1CNC[C@@H]1CCC(=O)N1` (stereo partly drawn) [compound 528] stands 0.064 nM; under `COc1nc(-c2cccc(-c3cccc(-c4cnc(CN5C[C@H](O)[C@@H](O)C5)c(OC)n4)c3Cl)c2Cl)cnc1CNC[C@@H]1CCC(=O)N1` [compound 529], 0.091 nM.
Take `COC[C@@H]1C[C@H](OC)CN1Cc1ncc(-c2cccc(-c3cccc(-c4cnc(CNC[C@@H]5CCC(=O)N5)c(OC)n4)c3Cl)c2Cl)nc1OC` [compound 530]: the IC50 is 0.212 nM.
On to `COc1nc(-c2cccc(-c3cccc(-c4cnc(CN5CCC(C(=O)N(C)C)C5)c(OC)n4)c3Cl)c2Cl)cnc1CN1CCC(C(=O)N(C)C)C1` (stereo not drawn) [compound 531], for which the IC50 was 0.225 nM.
As to `COc1nc(-c2cccc(-c3cccc(-c4cnc(CN5CC[C@@H](C(N)=O)C5)c(OC)n4)c3Cl)c2Cl)cnc1CN1CC[C@@H](C(N)=O)C1` [compound 532], the IC50 was found to be 0.273 nM.
For `COc1nc(-c2cccc(-c3cccc(-c4cnc(CN5C[C@@H](CO)[C@H](C)C5)c(OC)n4)c3Cl)c2Cl)cnc1CN1C[C@@H](CO)[C@H](C)C1` [compound 533] the value was 0.096 nM.
`COc1nc(-c2cccc(-c3cccc(-c4cnc(CN5CCC(C(=O)N(C)C)C5)c(OC)n4)c3Cl)c2Cl)cnc1CNC[C@@H]1CCC(=O)N1` (stereo partly drawn) [compound 534]: the IC50 came out at 0.299 nM.
For `COc1nc(-c2cccc(-c3cccc(-c4cnc(CN5CC[C@@H](C(N)=O)C5)c(OC)n4)c3Cl)c2Cl)cnc1CNC[C@@H]1CCC(=O)N1` [compound 535] the value was 0.095 nM; for `COc1nc(-c2cccc(-c3cccc(-c4cnc(CN[C@H]5C[C@@H](OC(F)F)C5)c(OC)n4)c3Cl)c2Cl)cnc1CNC[C@@H]1CCC(=O)N1` [compound 536], 0.276 nM.
`COc1nc(-c2cccc(-c3cccc(-c4cnc(CN5CCC6(CCC(=O)N6)C5)c(OC)n4)c3Cl)c2Cl)cnc1CN1CCC2(CCC(=O)N2)C1` (stereo not drawn) [compound 537]: the IC50 turned out to be 0.064 nM.
For `COc1nc(-c2cccc(-c3cccc(-c4cnc(CNCC[C@@H]5CNC(=O)C5)c(OC)n4)c3Cl)c2Cl)cnc1CNCC[C@@H]1CNC(=O)C1` [compound 538] the value was 0.199 nM.
Under `COc1nc(-c2cccc(-c3cccc(-c4cnc(CNC[C@@H]5CCC(=O)N5)c(OC)n4)c3Cl)c2Cl)cnc1CNCC[C@@H]1CNC(=O)C1` [compound 539] stands 0.171 nM; under `COc1nc(-c2cccc(-c3cccc(-c4cnc(CNCC[C@H]5CNC(=O)C5)c(OC)n4)c3Cl)c2Cl)cnc1CNCC[C@H]1CNC(=O)C1` [compound 540], 0.072 nM; under `COc1nc(-c2cccc(-c3cccc(-c4cnc(CNC[C@@H]5CCC(=O)N5)c(OC)n4)c3Cl)c2Cl)cnc1CNCC[C@H]1CNC(=O)C1` [compound 541], 0.094 nM.
